Patent publication US12668594B2, “TYK2 inhibitors and uses thereof” (Sudo Biosciences Limited, priority 2020, dated 2026)

Key:
TYK2 [1] = target: T1, TYK2 (Homo sapiens, UniProt P29597); test: HEK-Blue IFNα/β reporter assay (SEAP) for TYK2 pseudokinase inhibition; type: cell-based; settings: HEK-Blue IFNα/β cells, 1 ng/mL human recombinant IFNα
Experimental: (§1) HEK-Blue™ IL-23 and IFNα/β cells with a stably-integrated cytokine receptor and STAT3 or STAT1 express STAT-inducible secreted embryonic alkaline phosphatase (SEAP) reporter gene upon cytokine stimulation. These cells are plated in DMVEM (Gibco) containing 10% heat-inactivated FBS (Gibco) and 100 U/mL PenStrep (Gibco) at 37° C. under […] conditions for 20-22 hours. The cells are then pretreated with serially diluted test compounds for 60 min prior to stimulation with either 10 ng/mL human recombinant IL-23 (Miltenyl Biotech) or 1 ng/mL human recombinant IFNα (InvivoGen) for 22-24 hours for IL-23 or 16-18 h for IFNα. SEAP induction is measured using the QUANTI Blue™ Solution (InvivoGen) according to the manufacturer's instructions. Inhibition data are calculated by comparison to no inhibitor control wells for 000 inhibition and non-stimulated control wells for 10000 inhibition. Dose response curves are generated to determine the concentration required to inhibit 5000 of cellular response (IC50) as derived by non-linear regression analysis.

TYK2 [2] = target: T1, TYK2; test: HEK-Blue IL-23 reporter assay (SEAP) for TYK2 pseudokinase inhibition; type: cell-based; parameters: HEK-Blue™ IL-23 and IFNα/β cells with a stably-integrated cytokine receptor and STAT3 or STAT1; host or cells: HEK-Blue IL-23 / HEK-Blue IFNα/β cells (HEK293 background); settings: HEK-Blue IL-23 cells, 10 ng/mL human recombinant IL-23, SEAP reporter; read-out: IL23 IC50
Experimental: as §1

T1 sequence (P29597 whole entry): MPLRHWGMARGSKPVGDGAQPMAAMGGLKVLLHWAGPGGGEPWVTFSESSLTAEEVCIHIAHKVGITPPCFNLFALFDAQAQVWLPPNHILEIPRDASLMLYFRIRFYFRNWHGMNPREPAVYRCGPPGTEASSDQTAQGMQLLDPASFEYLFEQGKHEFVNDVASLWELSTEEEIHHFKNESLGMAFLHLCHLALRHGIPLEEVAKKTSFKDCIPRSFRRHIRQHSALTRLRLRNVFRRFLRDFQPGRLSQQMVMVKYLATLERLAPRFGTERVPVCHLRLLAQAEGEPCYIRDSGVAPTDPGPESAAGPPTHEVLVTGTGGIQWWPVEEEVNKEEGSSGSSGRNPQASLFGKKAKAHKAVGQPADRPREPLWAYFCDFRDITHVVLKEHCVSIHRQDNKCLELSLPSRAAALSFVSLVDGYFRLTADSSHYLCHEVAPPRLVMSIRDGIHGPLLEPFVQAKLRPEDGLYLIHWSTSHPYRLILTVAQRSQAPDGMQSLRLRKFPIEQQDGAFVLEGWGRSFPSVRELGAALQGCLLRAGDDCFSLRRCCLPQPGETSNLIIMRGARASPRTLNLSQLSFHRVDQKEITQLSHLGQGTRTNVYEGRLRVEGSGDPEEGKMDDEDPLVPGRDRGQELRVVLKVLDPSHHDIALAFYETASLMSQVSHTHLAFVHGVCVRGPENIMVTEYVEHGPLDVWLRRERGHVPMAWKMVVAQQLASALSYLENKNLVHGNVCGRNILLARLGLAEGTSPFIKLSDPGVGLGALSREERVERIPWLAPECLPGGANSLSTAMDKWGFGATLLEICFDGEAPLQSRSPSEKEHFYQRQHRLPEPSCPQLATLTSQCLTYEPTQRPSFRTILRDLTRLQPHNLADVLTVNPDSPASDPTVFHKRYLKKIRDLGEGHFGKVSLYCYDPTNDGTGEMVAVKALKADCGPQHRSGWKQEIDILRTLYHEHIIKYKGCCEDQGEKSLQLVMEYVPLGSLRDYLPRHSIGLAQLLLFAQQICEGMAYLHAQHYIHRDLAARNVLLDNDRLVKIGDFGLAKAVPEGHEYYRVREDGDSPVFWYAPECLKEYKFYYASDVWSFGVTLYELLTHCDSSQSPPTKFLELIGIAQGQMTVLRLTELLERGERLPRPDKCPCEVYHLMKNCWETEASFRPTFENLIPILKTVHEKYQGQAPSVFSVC

| SMILES | IC50 (TYK2 [1]) [µM] | IC50 (TYK2 [2]) [µM] |
| --- | --- | --- |
| CS(=O)(=O)c1ccc(-n2[nH]c(=O)c3cnc(Nc4ccc(F)cn4)cc32)cc1 [Compound I-62, 6-((5-fluoropyridin-2-yl)amino)-1-(4-(methylsulfonyl)phenyl)-1,2-dihydro-3H-pyrazolo[4,3-c]pyridin-3-one] | 30 to 90 | < 10 |
| O=C(Nc1cc2c(cn1)c(=O)[nH]n2-c1cccc(OC(F)(F)F)c1)C1CC1 [Compound I-55, N-(3-oxo-1-(3-(trifluoromethoxy)phenyl)-2,3-dihydro-1H-pyrazolo[4,3-c]pyridin-6-yl)cyclopropanecarboxamide] | < 10 | < 10 |
| COc1cccc(-n2[nH]c(=O)c3cnc(Nc4cccnn4)cc32)c1 [Compound I-52, 1-(3-methoxyphenyl)-6-(pyridazin-3-ylamino)-1,2-dihydro-3H-pyrazolo[4,3-c]pyridin-3-one] | < 10 | < 10 |
| Cc1cc(Nc2cc3c(cn2)c(=O)[nH]n3-c2cccnc2)nc(C)n1 [Compound I-30, 6-((2,6-dimethylpyrimidin-4-yl)amino)-1-(pyridin-3-yl)-1,2-dihydro-3H-pyrazolo[4,3-c]pyridin-3-one] | 10 to 30 | < 10 |
| COc1ccc(-n2[nH]c(=O)c3cnc(NC(=O)C4CC4)cc32)cc1 [Compound I-19, N-(1-(4-methoxyphenyl)-3-oxo-2,3-dihydro-1H-pyrazolo[4,3-c]pyridin-6-yl)cyclopropanecarboxamide] | 10 to 30 | < 10 |
| O=c1[nH]n(-c2cccc(OC(F)(F)F)c2)c2cc(Nc3ccc(F)cn3)ncc12 [Compound I-56, 6-((5-fluoropyridin-2-yl)amino)-1-(3-(trifluoromethoxy)phenyl)-1,2-dihydro-3H-pyrazolo[4,3-c]pyridin-3-one] | 10 to 30 | < 10 |
| Cc1cc(Nc2cc3c(cn2)c(=O)[nH]n3-c2ccc(S(C)(=O)=O)cc2)nc(C)n1 [Compound I-32, 6-((2,6-dimethylpyrimidin-4-yl)amino)-1-(4-(methylsulfonyl)phenyl)-1,2-dihydro-3H-pyrazolo[4,3-c]pyridin-3-one] | > 90 | 10 to 30 |
| COc1cccc(-n2[nH]c(=O)c3cnc(Nc4ccc(C(F)(F)F)cn4)cc32)c1 [Compound I-42, 1-(3-methoxyphenyl)-6-((5-(trifluoromethyl)pyridin-2-yl)amino)-1,2-dihydro-3H-pyrazolo[4,3-c]pyridin-3-one] | < 10 | < 10 |
| COc1cccc(-n2[nH]c(=O)c3cnc(Nc4ccncn4)cc32)c1 [Compound I-51, 1-(3-methoxyphenyl)-6-(pyrimidin-4-ylamino)-1,2-dihydro-3H-pyrazolo[4,3-c]pyridin-3-one] | < 10 | < 10 |
| COc1cccc(-n2[nH]c(=O)c3cnc(Nc4cc(OC)ncn4)cc32)c1 [Compound I-46, 1-(3-methoxyphenyl)-6-((6-methoxypyrimidin-4-yl)amino)-1,2-dihydro-3H-pyrazolo[4,3-c]pyridin-3-one] | > 90 | < 10 |
| Cc1cc(Nc2cc3c(cn2)c(=O)[nH]n3-c2ccccc2S(C)(=O)=O)nc(C)n1 [Compound I-20, 6-((2,6-dimethylpyrimidin-4-yl)amino)-1-(2-(methylsulfonyl)phenyl)-1,2-dihydro-3H-pyrazolo[4,3-c]pyridin-3-one] | 30 to 90 | 10 to 30 |
| Cc1cc(Nc2cc3c(cn2)c(=O)[nH]n3-c2ccccc2)ncc1F [Compound I-6, 6-((5-fluoro-4-methylpyridin-2-yl)amino)-1-phenyl-1,2-dihydro-3H-pyrazolo[4,3-c]pyridin-3-one] | < 10 | < 10 |
| Cn1ccc(Nc2cc3c(cn2)c(=O)[nH]n3-c2ccccc2)n1 [Compound I-4, 6-((1-methyl-1H-pyrazol-3-yl)amino)-1-phenyl-1,2-dihydro-3H-pyrazolo[4,3-c]pyridin-3-one] | 10 to 30 | < 10 |

Next, values leading:

| IC50 (TYK2 [1]) [µM] | IC50 (TYK2 [2]) [µM] | SMILES |
| --- | --- | --- |
| < 10 | < 10 | Cc1cc(Nc2cc3c(cn2)c(=O)[nH]n3-c2ccc(C(F)(F)F)cc2)nc(C)n1 [Compound I-66, 6-((2,6-dimethylpyrimidin-4-yl)amino)-1-(4-(trifluoromethyl)phenyl)-1,2-dihydro-3H-pyrazolo[4,3-c]pyridin-3-one] |
| > 90 | < 10 | Cc1cc(Nc2cc3c(cn2)c(=O)[nH]n3-c2cc(Cl)cc(Cl)c2)nc(C)n1 [Compound I-96, 1-(3,5-dichlorophenyl)-6-((2,6-dimethylpyrimidin-4-yl)amino)-1,2-dihydro-3H-pyrazolo[4,3-c]pyridin-3-one] |
| < 10 | < 10 | COC(=O)c1ccc(-n2[nH]c(=O)c3cnc(Nc4ccc(F)cn4)cc32)cc1 [Compound I-75, methyl 4-(6-((5-fluoropyridin-2-yl)amino)-3-oxo-2,3-dihydro-1H-pyrazolo[4,3-c]pyridin-1-yl)benzoate] |
| < 10 | < 10 | COc1cc(-n2[nH]c(=O)c3cnc(Nc4ccc(F)cn4)cc32)ccn1 [Compound I-84, 6-((5-fluoropyridin-2-yl)amino)-1-(2-methoxypyridin-4-yl)-1,2-dihydro-3H-pyrazolo[4,3-c]pyridin-3-one] |
| < 10 | < 10 | Cc1cc(Nc2cc3c(cn2)c(=O)[nH]n3-c2ccccc2C)nc(C)n1 [Compound I-105, 6-((2,6-dimethylpyrimidin-4-yl)amino)-1-(o-tolyl)-1,2-dihydro-3H-pyrazolo[4,3-c]pyridin-3-one] |
| < 10 | < 10 | Cc1cc(Nc2cc3c(cn2)c(=O)[nH]n3C2CCCC2)nc(C)n1 [Compound I-114, 1-cyclopentyl-6-((2,6-dimethylpyrimidin-4-yl)amino)-1,2-dihydro-3H-pyrazolo[4,3-c]pyridin-3-one] |
| 30 to 90 | < 10 | CNC(=O)Nc1cc2c(cn1)c(=O)[nH]n2-c1ccccc1 [Compound I-125, 1-methyl-3-(3-oxo-1-phenyl-2,3-dihydro-1H-pyrazolo[4,3-c]pyridin-6-yl)urea] |
| < 10 | < 10 | O=c1[nH]n(-c2ccc(C(F)(F)F)cc2)c2cc(Nc3ccc(F)cn3)ncc12 [Compound I-67, 6-((5-fluoropyridin-2-yl)amino)-1-(4-(trifluoromethyl)phenyl)-1,2-dihydro-3H-pyrazolo[4,3-c]pyridin-3-one] |
| > 90 | > 90 | COc1c(F)cccc1-n1[nH]c(=O)c2cnc(Nc3ccc(F)cn3)cc21 [Compound I-100, 1-(3-fluoro-2-methoxyphenyl)-6-((5-fluoropyridin-2-yl)amino)-1,2-dihydro-3H-pyrazolo[4,3-c]pyridin-3-one] |
| < 10 | < 10 | O=c1[nH]n(-c2ccccc2F)c2cc(Nc3ccc(F)cn3)ncc12 [Compound I-112, 1-(2-fluorophenyl)-6-((5-fluoropyridin-2-yl)amino)-1,2-dihydro-3H-pyrazolo[4,3-c]pyridin-3-one] |
| 10 to 30 | < 10 | COc1cc(-n2[nH]c(=O)c3cnc(NC(=O)C4CC4)cc32)ccc1C#N [Compound I-82, N-(1-(4-cyano-3-methoxyphenyl)-3-oxo-2,3-dihydro-1H-pyrazolo[4,3-c]pyridin-6-yl)cyclopropanecarboxamide] |
| < 10 | < 10 | N#Cc1ccc(-n2[nH]c(=O)c3cnc(Nc4ccc(F)cn4)cc32)cc1C(F)(F)F [Compound I-92, 4-(6-((5-fluoropyridin-2-yl)amino)-3-oxo-2,3-dihydro-1H-pyrazolo[4,3-c]pyridin-1-yl)-2-(trifluoromethyl)benzonitrile] |
| 10 to 30 | < 10 | Cc1cc(Nc2cc3c(cn2)c(=O)[nH]n3-c2cccc(CO)c2)nc(C)n1 [Compound I-117, 6-((2,6-dimethylpyrimidin-4-yl)amino)-1-(3-(hydroxymethyl)phenyl)-1,2-dihydro-3H-pyrazolo[4,3-c]pyridin-3-one] |
| < 10 | < 10 | Cn1cc2ccc(-n3[nH]c(=O)c4cnc(Nc5ccc(F)cn5)cc43)cc2n1 [Compound I-122, 6-((5-fluoropyridin-2-yl)amino)-1-(2-methyl-2H-indazol-6-yl)-1,2-dihydro-3H-pyrazolo[4,3-c]pyridin-3-one] |
| > 90 | > 90 | COc1cc(-n2[nH]c(=O)c3cnc(Nc4ccc(F)cn4)cc32)ccc1Cl [Compound I-79, 1-(4-chloro-3-methoxyphenyl)-6-((5-fluoropyridin-2-yl)amino)-1,2-dihydro-3H-pyrazolo[4,3-c]pyridin-3-one] |
| < 10 | < 10 | O=c1[nH]n(C2CCCC2)c2cc(Nc3ccc(F)cn3)ncc12 [Compound I-115, 1-cyclopentyl-6-((5-fluoropyridin-2-yl)amino)-1,2-dihydro-3H-pyrazolo[4,3-c]pyridin-3-one] |
| > 90 | < 10 | Cc1cc(Nc2cc3c(cn2)c(=O)[nH]n3-c2cccc(C(=O)NCc3ccccn3)c2)nc(C)n1 [Compound I-118, 3-(6-((2,6-dimethylpyrimidin-4-yl)amino)-3-oxo-2,3-dihydro-1H-pyrazolo[4,3-c]pyridin-1-yl)-N-(pyridin-2-ylmethyl)benzamide] |
